# Measured values from patent US20230265151A1, “GIP/GLP1 CO-AGONIST COMPOUNDS” (priority 2020, published 2023).
# Like-named read-outs stand apart in the source and are kept apart here. *1 amine or outer side, *2 acyl side, *3 side chain or, on linkers, in order; H or OH if unused. Where a SMILES comes first, the peptide text is derived from it. Side-chain parts run from the residue outwards. [ ]: non-standard residue; d: D form. The star is where a group is joined. Decanoyl(10-(4-HOOC-PhO)) = O=C(O)c1ccc(OCCCCCCCCCC(=O)*)cc1; αMePhe(2-F) = C[C@](N)(Cc1ccccc1F)C(=O)O; γGlu = O=C(O)[C@H](CCC(=O)[*:2])N[*:1]; αMeY = C[C@](N)(Cc1ccc(O)cc1)C(=O)O; αMeL = CC(C)C[C@](C)(N)C(=O)O; Orn = NCCC[C@H](N)C(=O)O; AEEA = NCCOCCOCC(=O)O; Aib = CC(C)(N)C(=O)O
# Key:
# Type in all cases: cell-based
# hGIPR = molecular target: T1, hGIPR (Homo sapiens, UniProt P48546); test: Functional cAMP formation (HTRF) in HEK-293 clonal cells expressing hGIPR, 0.1% bovine casein, without or with 1.0% human serum albumin; settings: for EC50: geometric mean
# T1 construct: expressed in transfected cells
# T1 sequence (P48546 22-466): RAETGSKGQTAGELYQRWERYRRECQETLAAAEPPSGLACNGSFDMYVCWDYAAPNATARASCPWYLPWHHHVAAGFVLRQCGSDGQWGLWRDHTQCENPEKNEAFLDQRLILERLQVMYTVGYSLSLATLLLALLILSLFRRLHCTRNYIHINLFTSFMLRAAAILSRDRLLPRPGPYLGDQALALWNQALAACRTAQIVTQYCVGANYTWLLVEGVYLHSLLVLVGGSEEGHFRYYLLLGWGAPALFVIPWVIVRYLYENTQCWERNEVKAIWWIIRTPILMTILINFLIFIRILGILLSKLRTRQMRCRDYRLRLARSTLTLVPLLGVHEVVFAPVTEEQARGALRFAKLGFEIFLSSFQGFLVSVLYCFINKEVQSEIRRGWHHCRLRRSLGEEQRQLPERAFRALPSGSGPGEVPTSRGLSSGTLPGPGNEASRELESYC
# In short: (§1)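 Cells were stimulated with peptide for 30 min at 37° C, then lysed in buffer carrying cAMP-d2 and anti-cAMP Eu3+-cryptate for a competitive HTRF read after at least 60 min at room temperature. The 665/620 nm ratio was converted to nM cAMP against a standard curve.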
# hGLP-1R = hGLP-1R (Homo sapiens, UniProt P43220); test: Functional cAMP formation (HTRF) in HEK-293 clonal cells expressing hGLP-1R, 0.1% bovine casein, without or with 1.0% human serum albumin; set-up: expressed in transfected cells; settings: for EC50: geometric mean
# In short: as §1
# hGCGR = molecular target: T2, hGCGR (Homo sapiens, UniProt P47871); test: Functional cAMP formation (HTRF) in HEK-293 clonal cells expressing hGCGR, 0.1% bovine casein, without or with 1.0% human serum albumin
# T2 construct: expressed in transfected cells
# In short: as §1
# [1] = HEK293, 0.1% bovine casein and 1.0% human serum albumin, 37° C., percent of maximal response to GIP(1-42)NH2, read-out: hGIPR Emax, % ± SEM
# [2] = cAMP, incubated at 37° C., 0.1% bovine casein (no human serum albumin), read-out: hGIPR EC50, nM (SEM, n)
# [3] = HEK293, 0.1% bovine casein and 1.0% human serum albumin, 37° C., percent of maximal response to GLP-1(7-36)NH2, read-out: hGLP-1R Emax, % ± SEM
# [4] = 0.1% bovine casein and 1.0% human serum albumin, 37° C., geometric mean, read-out: hGCGR EC50, nM (SEM, n)
# [5] = cAMP, incubated at 37° C., 0.1% bovine casein (no human serum albumin), geometric mean, read-out: hGCGR EC50, nM (SEM, n)
# [6] = HEK293, read-out: hGIPR Emax, % ± SEM, cAMP, 37° C., 0.1% bovine casein, percent of maximal response to GIP(1-42)NH2, arithmetic mean
# [7] = hGCGR EC50, nM (SEM, n), cAMP, 37° C., 0.1% bovine casein (no human serum albumin), geometric mean
# Sequence of hGLP-1R (P43220 24-463): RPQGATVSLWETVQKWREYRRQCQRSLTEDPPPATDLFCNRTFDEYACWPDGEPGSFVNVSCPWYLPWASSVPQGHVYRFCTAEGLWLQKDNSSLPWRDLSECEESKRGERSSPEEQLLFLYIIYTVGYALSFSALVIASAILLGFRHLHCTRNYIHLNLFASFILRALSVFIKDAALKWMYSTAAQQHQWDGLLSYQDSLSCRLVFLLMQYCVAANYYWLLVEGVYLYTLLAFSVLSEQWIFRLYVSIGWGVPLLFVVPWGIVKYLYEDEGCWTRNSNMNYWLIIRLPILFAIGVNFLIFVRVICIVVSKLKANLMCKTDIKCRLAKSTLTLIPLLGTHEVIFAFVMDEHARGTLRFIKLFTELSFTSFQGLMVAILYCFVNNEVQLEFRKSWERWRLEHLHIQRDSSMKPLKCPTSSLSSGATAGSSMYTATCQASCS
# T2 sequence (P47871 26-477): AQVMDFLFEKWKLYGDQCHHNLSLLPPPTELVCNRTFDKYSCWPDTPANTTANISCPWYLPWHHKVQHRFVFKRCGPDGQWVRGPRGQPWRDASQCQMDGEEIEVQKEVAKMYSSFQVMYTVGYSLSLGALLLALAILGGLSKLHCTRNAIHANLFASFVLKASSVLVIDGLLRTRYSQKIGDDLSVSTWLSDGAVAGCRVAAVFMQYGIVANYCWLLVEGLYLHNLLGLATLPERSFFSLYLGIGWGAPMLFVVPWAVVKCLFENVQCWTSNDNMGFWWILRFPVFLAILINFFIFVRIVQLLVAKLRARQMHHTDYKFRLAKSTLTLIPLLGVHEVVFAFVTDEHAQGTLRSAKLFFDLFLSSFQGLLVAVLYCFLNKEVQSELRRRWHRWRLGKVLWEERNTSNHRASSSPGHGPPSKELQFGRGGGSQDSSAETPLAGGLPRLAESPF
Structure (SMILES),Emax (hGIPR; [1]),EC50 (hGIPR; [2]),Emax (hGLP-1R; [3]),EC50 (hGCGR; [4]),EC50 (hGCGR; [5]),Emax (hGIPR; [6]),EC50 (hGCGR; [7]),other results
CC[C@H](C)[C@H](NC(=O)[C@H](CC(C)C)NC(=O)[C@](C)(Cc1ccc(O)cc1)NC(=O)[C@@H](CCC(=O)O)NC(=O)[C@@H](NC(=O)[C@H](Cc1ccccc1)NC(=O)[C@H](CCC(=O)O)NC(=O)C(C)(C)NC(=O)[C@H](CCC(N)=O)NC(=O)[C@H](C)NC(=O)[C@H](CCCCNC(=O)COCCOCCNC(=O)COCCOCCNC(=O)CC[C@H](NC(=O)CCCCCCCCCCCCC(=O)O)C(=O)O)NC(=O)[C@H](CCCN)NC(=O)[C@H](CC(=O)O)NC(=O)[C@H](CC(C)C)NC(=O)[C@](C)(CC(C)C)NC(=O)[C@@H](NC(=O)C(C)(C)NC(=O)[C@H](Cc1ccc(O)cc1)NC(=O)[C@H](CC(=O)O)NC(=O)[C@H](CO)NC(=O)[C@@H](NC(=O)[C@](C)(Cc1ccccc1F)NC(=O)[C@@H](NC(=O)CNC(=O)[C@H](CCC(=O)O)NC(=O)C(C)(C)NC(=O)[C@@H](N)Cc1ccc(O)cc1)[C@@H](C)O)[C@@H](C)O)[C@@H](C)CC)[C@@H](C)CC)C(=O)N[C@@H](CCCCNC(=O)COCCOCCNC(=O)COCCOCCNC(=O)CC[C@H](NC(=O)CCCCCCCCCCCCC(=O)O)C(=O)O)C(=O)NCC(=O)NCC(=O)N1CCC[C@H]1C(=O)N[C@@H](CO)C(=O)N[C@@H](CO)C(=O)NCC(=O)N[C@@H](C)C(=O)N1CCC[C@H]1C(=O)N1CCC[C@H]1C(=O)N1CCC[C@H]1C(=O)N[C@@H](CO)C(N)=O [Example 231],85.4%,0.0184 nM,109%,> 9950 nM,> 9950 nM,–,–,"EC50 (hGIPR; 0.1% bovine casein and 1.0% human serum albumin, 37° C., read-out: hGIPR EC50, nM (SEM, n)): 2.46 nM; EC50 (hGLP-1R; cAMP, incubated at 37° C., 0.1% bovine casein (no human serum albumin), read-out: hGLP-1R EC50, nM (SEM, n)): 1.22 nM"
CC[C@H](C)[C@H](NC(=O)[C@H](CC(C)C)NC(=O)[C@](C)(Cc1ccc(O)cc1)NC(=O)[C@@H](CCC(=O)O)NC(=O)[C@@H](NC(=O)[C@H](Cc1ccccc1)NC(=O)[C@H](CCC(=O)O)NC(=O)C(C)(C)NC(=O)[C@H](CCC(N)=O)NC(=O)[C@H](C)NC(=O)[C@H](CCCCNC(=O)COCCOCCNC(=O)COCCOCCNC(=O)CC[C@H](NC(=O)CCCCCCCCCCCCC(=O)O)C(=O)O)NC(=O)[C@H](CCCN)NC(=O)[C@H](CC(=O)O)NC(=O)[C@H](CC(C)C)NC(=O)[C@](C)(CC(C)C)NC(=O)[C@@H](NC(=O)[C@H](CN)NC(=O)[C@H](Cc1ccncc1)NC(=O)[C@H](CC(=O)O)NC(=O)[C@H](CO)NC(=O)[C@@H](NC(=O)[C@](C)(Cc1ccccc1F)NC(=O)[C@@H](NC(=O)CNC(=O)[C@H](CCC(=O)O)NC(=O)C(C)(C)NC(=O)[C@@H](N)Cc1ccc(O)cc1)[C@@H](C)O)[C@@H](C)O)[C@@H](C)CC)[C@@H](C)CC)C(=O)N[C@@H](CCC(=O)O)C(=O)NCC(=O)NCC(=O)N[C@@H](CCCCNC(=O)COCCOCCNC(=O)COCCOCCNC(=O)CC[C@H](NC(=O)CCCCCCCCCCCCC(=O)O)C(=O)O)C(=O)N[C@@H](CO)C(=O)N[C@@H](CO)C(=O)NCC(=O)N[C@@H](C)C(=O)N1CCC[C@H]1C(=O)N1CCC[C@H]1C(=O)N1CCC[C@H]1C(=O)N[C@@H](CO)C(N)=O [Example 199],77.1%,0.0587 nM,100%,> 9950 nM,> 9950 nM,–,–,"Emax (hGIPR; HEK293, percent of maximal response to GIP(1-42)NH2, 37° C., 0.1% bovine casein, arithmetic mean, read-out: hGIPR Emax, % ± SEM): 96.9 ± 1.48%; Emax (hGLP-1R; HEK293, percent of maximal response to GLP-1(7-36)NH2, 37° C., 0.1% bovine casein, arithmetic mean, read-out: hGLP-1R Emax, % ± SEM): 96.7 ± 6.69%"
CC[C@H](C)[C@H](NC(=O)[C@H](CC(C)C)NC(=O)[C@](C)(Cc1ccc(O)cc1)NC(=O)[C@@H](CCC(=O)O)NC(=O)[C@@H](NC(=O)[C@H](Cc1ccccc1)NC(=O)[C@H](CCC(=O)O)NC(=O)C(C)(C)NC(=O)[C@H](CCC(N)=O)NC(=O)[C@H](C)NC(=O)[C@H](CCCCNC(=O)COCCOCCNC(=O)COCCOCCNC(=O)CC[C@H](NC(=O)CCCCCCCCCOc1ccc(C(=O)O)cc1)C(=O)O)NC(=O)[C@H](CCCN)NC(=O)[C@H](CC(=O)O)NC(=O)[C@H](CC(C)C)NC(=O)[C@](C)(CC(C)C)NC(=O)[C@@H](NC(=O)[C@H](CO)NC(=O)[C@H](Cc1ccc(OC)cc1)NC(=O)[C@H](CC(=O)O)NC(=O)[C@H](CO)NC(=O)[C@@H](NC(=O)[C@](C)(Cc1ccccc1F)NC(=O)[C@@H](NC(=O)CNC(=O)[C@H](CCC(=O)O)NC(=O)C(C)(C)NC(=O)[C@@H](N)Cc1ccc(O)cc1)[C@@H](C)O)[C@@H](C)O)[C@@H](C)CC)[C@@H](C)CC)C(=O)N[C@@H](CCCCNC(=O)COCCOCCNC(=O)COCCOCCNC(=O)CC[C@H](NC(=O)CCCCCCCCCOc1ccc(C(=O)O)cc1)C(=O)O)C(=O)NCC(=O)NCC(=O)N1CCC[C@H]1C(=O)N[C@@H](CO)C(=O)N[C@@H](CO)C(=O)NCC(=O)N[C@@H](C)C(=O)N1CCC[C@H]1C(=O)N1CCC[C@H]1C(=O)N1CCC[C@H]1C(=O)N[C@@H](CO)C(N)=O [Example 278] (H-Y[Aib]EGT[αMePhe(2-F)]TSDY(Me)SI[αMeL]LD[Orn]K([AEEA-AEEA-γGlu-Decanoyl(10-(4-HOOC-PhO))])AQ[Aib]EFI[dE][αMeY]LIK([AEEA-AEEA-γGlu-Decanoyl(10-(4-HOOC-PhO))])GGPSSGAPPPS-NH2),–,–,–,–,–,105%,> 9950 nM,"Emax (hGIPR; HEK293, read-out: hGIPR Emax, % ± SEM, 0.1% bovine casein and 1.0% human serum albumin, 37° C., percent of maximal response to GIP(1-42)NH2): 91.1%; EC50 (hGIPR; hGIPR EC50, nM (SEM, n), 0.1% bovine casein and 1.0% human serum albumin, 37° C.): 1.41 nM; Emax (hGLP-1R; HEK293, read-out: hGLP-1R Emax, % ± SEM, 0.1% bovine casein and 1.0% human serum albumin, 37° C., percent of maximal response to GLP-1(7-36)NH2): 121%; Emax (hGLP-1R; HEK293, read-out: hGLP-1R Emax, % ± SEM, cAMP, 37° C., 0.1% bovine casein, percent of maximal response to GLP-1(7-36)NH2, arithmetic mean): 109%; EC50 (hGLP-1R; hGLP-1R EC50, nM (SEM, n), 0.1% bovine casein and 1.0% human serum albumin, 37° C.): 27 nM; EC50 (hGCGR; hGCGR EC50, nM (SEM, n), 0.1% bovine casein and 1.0% human serum albumin, 37° C., geometric mean): > 9950 nM"
CC[C@H](C)[C@H](NC(=O)[C@H](CCCN)NC(=O)[C@H](CC(=O)O)NC(=O)[C@H](CC(C)C)NC(=O)[C@](C)(CC(C)C)NC(=O)[C@@H](NC(=O)C(C)(C)NC(=O)[C@@H](NC(=O)[C@H](CC(=O)O)NC(=O)[C@H](CO)NC(=O)[C@@H](NC(=O)[C@](C)(Cc1ccccc1F)NC(=O)[C@@H](NC(=O)CNC(=O)[C@H](CCC(=O)O)NC(=O)C(C)(C)NC(=O)[C@@H](N)Cc1ccc(O)cc1)[C@@H](C)O)[C@@H](C)O)C(C)C)[C@@H](C)CC)C(=O)N[C@@H](C)C(=O)N[C@@H](CCC(N)=O)C(=O)NC(C)(C)C(=O)N[C@@H](CCCCNC(=O)COCCOCCNC(=O)COCCOCCNC(=O)CC[C@H](NC(=O)CCCCCCCCCOc1ccc(C(=O)O)cc1)C(=O)O)C(=O)N[C@@H](Cc1ccccc1)C(=O)N[C@H](C(=O)N[C@H](CCC(=O)O)C(=O)N[C@@](C)(Cc1ccc(O)cc1)C(=O)N[C@@H](CC(C)C)C(=O)N[C@H](C(=O)N[C@@H](CCCCNC(=O)COCCOCCNC(=O)COCCOCCNC(=O)CC[C@H](NC(=O)CCCCCCCCCOc1ccc(C(=O)O)cc1)C(=O)O)C(=O)NCC(=O)NCC(=O)N1CCC[C@H]1C(=O)N[C@@H](CO)C(=O)N[C@@H](CO)C(=O)NCC(=O)N[C@@H](C)C(=O)N1CCC[C@H]1C(=O)N1CCC[C@H]1C(=O)N1CCC[C@H]1C(=O)N[C@@H](CO)C(N)=O)[C@@H](C)CC)[C@@H](C)CC [Example 330],–,–,–,–,–,112%,> 9950 nM,"EC50 (hGIPR; hGIPR EC50, nM (SEM, n), cAMP, 37° C., 0.1% bovine casein (no human serum albumin)): 0.0185 nM; Emax (hGLP-1R; HEK293, read-out: hGLP-1R Emax, % ± SEM, cAMP, 37° C., 0.1% bovine casein and 1.0% human serum albumin, percent of maximal response to GLP-1(7-36)NH2): 85%; EC50 (hGLP-1R; hGLP-1R EC50, nM (SEM, n), cAMP, 37° C., 0.1% bovine casein (no human serum albumin)): 0.477 nM; EC50 (hGCGR; hGCGR EC50, nM (SEM, n), cAMP, 37° C., 0.1% bovine casein and 1.0% human serum albumin, geometric mean (SEM, n)): > 9950 nM"
